{"source": "patent US12576051B2", "about": "“Methods and composition for treating respiratory obstructive diseases” (The Regents of the University of California, priority 2019, dated 2026)", "key": {"[1]": {"tested_on": "respiratory secreted mucus", "assay": "Mucolytic activity on respiratory secreted mucus of open porcine trachea sections (alcian blue)", "conditions": "2 mM, HCO3-Ringer with PGE2 (1 uM) and alcian blue (0.02%), 10 minutes at 37° C.; untreated showed clusters of secreted mucus; hydrochloride", "experimental": "FIG. 16 provides the mucolytic activity of compounds 646 and 647 on respiratory secreted mucus. Small sections of open porcine trachea (˜2 cm^2) were covered with HCO3-Ringer solution ([…]) containing PGE2 (1 uM) and alcian blue (0.02%), with or without compounds at a 2 mM final concentration, and then incubated for 10 minutes at 37° C.\nFIG. 17 provides the mucolytic activity of compounds 655 and 656 on respiratory secreted mucus. Small sections of open porcine trachea (˜2 cm^2) were covered with HCO3-Ringer solution ([…]) containing PGE2 (1 uM) and alcian blue (0.02%), with or without compounds at a 2 mM final concentration, and then incubated for 10 minutes at 37° C."}, "[2]": {"tested_on": "porcine gastric mucin extract (50 kDa band matched to Muc5ac mucin)", "assay": "Mucolytic activity on gastric mucin (electrophoresis, Coomassie stain)", "type": "biochemical", "conditions": "for 50 kDa protein band of gastric mucin extract: 37° C., 60 minutes, versus untreated extract, hydrochloride", "experimental": "FIG. 7 presents the effects of cysteamine bitartrate and compound 646 on porcine gastric mucin extract. One hundred microliters of gastric mucin extract (5 mg/mL) was incubated with and without cysteamine bitartrate and compound 646 separately, at 37° C. for 60 minutes.\nGastric Mucin extract solution: Mucin was prepared as stock solution of 5 mg/mL in water, in NaCl Ringer (150 mM Na^+, 4.6 mM K^+, 1 mM Ca^2+, 1 mM Mg^2+, 150 mM Cl^−, 2.5 mM PO4^x− and 10 mM glucose) pH 7.2, and in HCO3-Ringer solution (150 mM Na^+, 4.6 mM K^+, 1 mM Ca^2+, 1 mM Mg^2+, […] HCO3^−, 2.5 mM PO4^x− and 10 mM glucose) pH 8.\nMucolytic activity on gastric mucin. One hundred microliters of mucin solution were incubated with Cysteamine bitartrate or compound 646 at final concentrations from 0 to 2 mM as indicated in the text. Mixture was incubated at 37° C. for 0-1 hr. Mucolytic activity was ended with 30 microliters of SDS-sample buffer solution. Forty-five microliters of each sample/well were separated in an electrophoresis gel 4-12% Tris-Glycine. After electrophoresis gels were stained with Coomassie Blue solution.\nIn vitro mucolytic activity of cysteamine bitartrate and compound 646. To evaluate the mucolytic activity of cysteamine bitartrate and 2-aminoethane-1-d-1-thiol hydrochloride (Compound 646), gastric mucin extract was used as a substrate that was treated with 200 and 400 μM of cysteamine bitartrate or Compound 646 respectively.\nMass spectrometry analysis of the isolated 50 kDa protein band. Muc5ac and Muc6 mucins are two major secretory mucins found in the stomach. In order identify which of these mucins were part of the 50 kDa band, mass spectrometry was utilized. Mass spectrometry analysis of the 50 kDa protein band identified 17 unique peptides that matched with porcine Muc5ac mucin."}, "[3]": {"tested_on": "porcine airway mucus", "assay": "Mucolytic activity on porcine airway mucin (electrophoresis, Coomassie stain)", "type": "biochemical", "conditions": "for protein bands at 600 and 200 kDa of airway mucus: NaHCO3-Ringer, 60 minutes at 37° C., hydrochloride", "experimental": "FIG. 9 presents the effect of compound 646 on porcine airway mucus. Mucus collected from porcine upper airways diluted in NaHCO3-Ringer, was treated with different concentrations of compound 646 (0, 0.25. 0.5 and 1 mM), for 60 minutes at 37° C. In lane 1, representative protein pattern after electrophoresis protein separation of untreated porcine airway mucus (40 μg/well).\nAirway mucus supernatant diluted in NaHCO3-Ringer was treated with or without cysteamine bitartrate under basic and acidic conditions at 37° C. for 60 minutes.\nBiological specimens: Isolated native porcine airways were used as experimental model. Sections of open trachea tissue (approx. 2 cm^2) were carefully rinsed and cover small volume of NaHCO3-Ringer solution. Mucus secretion was stimulated with Prostaglandin E2 (PGE2, 10−6 M). Secreted mucus over the dissected open airways was carefully collected, aliquoted and immediately frozen at −80° C.\nMucolytic activity on porcine airway mucin: One hundred microliters of collected porcine airway supernatant was incubated with Cysteamine bitartrate or compound 646 at final concentrations from 0 to 2 mM as indicated in the text. Mucolytic activity was ended with 30 microliters of SDS-sample buffer solution. 45 microliters of each sample/well were separated in an electrophoresis gel 4-12% Tris-Glycine. After electrophoresis gels were stained with Coomassie Blue solution.\nMucolytic activity of synthetic compound 646. Respiratory airway mucus contained Muc5aC and Muc5B mucins. In order to determine whether compound 646 be used as a mucolytic agent for respiratory airways, supernatant of mucus collected from porcine airways was treated with compound 646 at different concentration (0-1 mM) for 1 h at 37° C.\nMucolytic activity of cysteamine bitartrate under basic and acidic conditions. To validate whether mucolytic activity of cysteamine bitartrate depends on changes of pH, airway mucus supernatant was incubated for 1 h at 37° C. with or without 2 mM cysteamine bitartrate diluted in NaHCO3. An additional airway mucus sample was treated with cysteamine bitartrate and supplemented with 4 μL of 0.1 N of acetic solution pH 4.5. […] The reduction, however, was approximately half of the decrease seen under acidic conditions."}}, "note": "Entries after “also recorded” stand apart in the source; their conditions may differ.", "data": [{"substance": "2-aminoethane-1-d-1-thiol hydrochloride [Compound 646]", "values": [{"measurement": "appearance of secreted mucus on trachea sections", "setting": "[1]", "result": "dispersed clusters of secreted mucus"}, {"measurement": "50 kDa protein band of gastric mucin extract", "setting": "[2]; 200 μM", "result": "decrease in the 50 kDa protein band"}, {"measurement": "50 kDa protein band of gastric mucin extract", "setting": "[2]; 400 μM", "result": "decrease in the 50 kDa protein band"}, {"measurement": "anti-mucin effect against gastric mucin, Muc5ac in particular", "setting": "[2]; summary of FIG. 7 and FIG. 8", "result": "anti-mucin effect against gastric mucin"}, {"measurement": "protein bands at 600 and 200 kDa of airway mucus", "setting": "[3]; 0.5 mM", "result": "two major changes in the proteins at the level of 600 and 200 kDa; also recorded: major changes on two protein bands"}, {"measurement": "protein bands at 600 and 200 kDa of airway mucus", "setting": "[3]; 1 mM", "result": "two major changes in the proteins at the level of 600 and 200 kDa; also recorded: major changes on two protein bands"}, {"measurement": "mucolytic effect on airway mucus", "setting": "[3]; mucus collected from porcine airways, summary of FIG. 9", "result": "mucolytic effect, similar to cysteamine"}]}]}
